Literature values, collected in patent US20240139316A1, “USE OF OREGOVOMAB AND BEVACIZUMAB, PACLITAXEL, CARBOPLATIN FOR TREATMENT OF BRCA-WILD TYPE PLATINUM SENSITIVE RECURRENT” (CANARIABIO INC., priority 2021, published 2024).

Assays:
[1] = stage III or IV ovarian cancer after initial surgical operation; bevacizumab added to carboplatin and paclitaxel, followed by single-agent bevacizumab
[2] = four infusions of Oregovomab with standard six cycle carboplatin and paclitaxel, relative to carboplatin-paclitaxel alone
[3] = oregovomab alone after the initial chemotherapy treatment, advanced ovarian cancer

Substance	Progression-free survival [1] [months]	overall survival (OS) [2]	progression free survival (PFS) [2]	clinical outcome [3]
bevacizumab: recombinant humanized IgG1 monoclonal antibody that selectively binds human VEGF-A	18			
Oregovomab		significant improvement	significant improvement	no improvements
carboplatin and paclitaxel	13			
